Measurements as given in patent US12599642B2, “Compositions derived from Salvia hispanica seeds” (Signum Biosciences, priority 2020, dated 2026).

How the values were obtained:
Format in all cases: cell-based
C. acnes ATCC ® 6919 ™ = assay: MIC, broth microdilution, C. acnes; details: ≥85% inhibition of OD
Description: (§1) Our skin microbiome houses billions of microbes, many of which are commensal and beneficial, however in some instances can trigger harmful skin inflammation. The potential for compounds to promote a healthy skin microbiome by targeting the “bad” bugs and not harming the “good” bugs is an emerging field of study in dermatology. The purpose of this study was to evaluate the antibacterial activity of the Chia seed extract composition of Example 14 compared to control Doxycycline applied in vitro to planktonic bacteria categorized as “good” (M. luteus ATCC® 4698™, S. hominis ATCC® 27847™, S. warneri ATCC® 27836™, S. epidermidis ATCC® 12228™, S. capitis ATCC®27841™, S. simulans ATCC® 27850™) and another six which are categorized as “bad” (S. aureus ATCC™ 29213™, S. aureus MRSA ATCC® 33592™, S. pyogenes ATTC® 19615™, C. acnes ATCC™ 6919™, C. xerosis ATCC® 373™, C. granulosum ATCC® 25564™).
(§2) Test agents and control were stored at recommended storage temperature until use. Minimum Inhibitory Concentrations (MIC) were determined in vitro using the broth microdilution method. […] Antimicrobial activity was defined as the lowest concentration of each test material that inhibited ≥85% of the optical density (OD) measured in broth media. […]

[1] = system: S. aureus MRSA ATCC ® 33591 ™; assay: MIC, broth microdilution, S. aureus MRSA; details: ≥85% inhibition of OD
[2] = system: S. simulans ATCC ® 27850 ™; assay: MIC, broth microdilution, S. simulans; details: ≥85% inhibition of OD
Description: as §1, §2

[3] = system: C. granulosum ATCC ® 25564 ™; assay: MIC, broth microdilution, C. granulosum; details: ≥85% inhibition of OD
Description: as §1, §2

M. luteus ATCC ® 4698 ™ = assay: MIC, broth microdilution, M. luteus; details: ≥85% inhibition of OD
Description: as §1, §2

[4] = system: S. warneri ATCC ® 27836 ™; assay: MIC, broth microdilution, S. warneri; details: ≥85% inhibition of OD
Description: as §1, §2

C. xerosis ATCC ® 373 ™ = assay: MIC, broth microdilution, C. xerosis; details: ≥85% inhibition of OD
Description: as §1, §2

[5] = system: S. pyogenes ATCC ® 19615 ™; assay: MIC, broth microdilution, S. pyogenes; details: ≥85% inhibition of OD
Description: as §1, §2

[6] = system: S. epidermidis ATCC ® 12228 ™; assay: MIC, broth microdilution, S. epidermidis; details: ≥85% inhibition of OD
Description: as §1, §2

S. aureus ATCC ® 29213 ™ = assay: MIC, broth microdilution, S. aureus; details: ≥85% inhibition of OD
Description: as §1, §2

[7] = system: “good” skin bacteria strains; assay: MIC, broth microdilution, summary over “good” strains; details: range over the six “good” strains
Description: as §1, §2

[8] = system: S. capitis ATCC ® 27841 ™; assay: MIC, broth microdilution, S. capitis; details: ≥85% inhibition of OD
Description: as §1, §2

[9] = system: S. hominis ATCC ® 27847 ™; assay: MIC, broth microdilution, S. hominis; details: ≥85% inhibition of OD
Description: as §1, §2

“bad” strains = assay: MIC, broth microdilution, summary over “bad” strains; details: range over the six “bad” strains
Description: as §1, §2

## Doxycycline hyclate
C. acnes ATCC ® 6919 ™
  MIC: (0.00003) % w/v
C. acnes ATCC ® 6919 ™; mean ± StDev of 3 experiments
  MIC: 0.26 ± 0.11 µg/mL
[1]
  MIC: (0.0020) % w/v
[1]; mean ± StDev of 3 experiments
  MIC: 20.83 ± 7.22 µg/mL
[2]
  MIC: (0.00013) % w/v
[2]; mean ± StDev of 3 experiments
  MIC: 1.04 ± 0.45 µg/mL
[3]
  MIC: (0.00001) % w/v
[3]; mean ± StDev of 3 experiments
  MIC: 0.13 ± 0.06 µg/mL
M. luteus ATCC ® 4698 ™
  MIC: (0.00001) % w/v
M. luteus ATCC ® 4698 ™; mean ± StDev of 3 experiments
  MIC: 0.10 ± 0.00 µg/mL
[4]
  MIC: (0.00003) % w/v
[4]; mean ± StDev of 3 experiments
  MIC: 0.31 ± 0.41 µg/mL
C. xerosis ATCC ® 373 ™
  MIC: (0.00003) % w/v
C. xerosis ATCC ® 373 ™; mean ± StDev of 3 experiments
  MIC: 0.33 ± 0.11 µg/mL
[5]
  MIC: (0.00001) % w/v
[5]; mean ± StDev of 3 experiments
  MIC: 0.11 ± 0.07 µg/mL
[6]
  MIC: (0.00013) % w/v
[6]; mean ± StDev of 3 experiments
  MIC: 1.30 ± 0.45 µg/mL
S. aureus ATCC ® 29213 ™
  MIC: (0.00002) % w/v
S. aureus ATCC ® 29213 ™; mean ± StDev of 3 experiments
  MIC: 0.20 ± 0.00 µg/mL
[7]
  MIC for “good” strains: 0.1 to 10.4 µg/mL
[8]
  MIC: (0.00007) % w/v
[8]; mean ± StDev of 3 experiments
  MIC: 0.65 ± 0.23 µg/mL
[9]
  MIC: (0.0010) % w/v
[9]; mean ± StDev of 3 experiments
  MIC: 10.42 ± 3.61 µg/mL
“bad” strains
  MIC for “bad” strains: 0.1 to 20.8 µg/mL
